The record followed here is PMC8799717, “Pharmacological targeting PIKfyve and tubulin as an effective treatment strategy for double-hit lymphoma” (Cell Death Discovery, 2022).

Among the targets are RIPK1 (Homo sapiens, UniProt Q13546); SRC (Homo sapiens, UniProt P12931); PAK2 (Homo sapiens, UniProt Q13177); NEK4 (Homo sapiens, UniProt P51957); FLT3(K663Q) (Homo sapiens, UniProt P36888, K663Q); NEK10 (Homo sapiens, UniProt Q6ZWH5); GSK3A (Homo sapiens, UniProt P49840); MKNK1 (Homo sapiens, UniProt Q9BUB5); ZAP70 (Homo sapiens, UniProt P43403); CHEK1 (Homo sapiens, UniProt O14757); KIT(A829P) (Homo sapiens, UniProt P10721, A829P); TGFBR1 (Homo sapiens, UniProt P36897); STK16 (Homo sapiens, UniProt O75716); EPHB2 (Homo sapiens, UniProt P29323); IGF1R (Homo sapiens, UniProt P08069); STK36 (Homo sapiens, UniProt Q9NRP7).

What all share (assay): biochemical
Design in all cases: KINOMEscan active-site-directed competition binding panel, 468 kinases, percent of DMSO control at 1 uM
Common to all, as to conditions: KINOMEscan binding, percent of DMSO control; read-out: Ctrl%

A further experiment concerns the target T1, PIP5K2C (Homo sapiens, UniProt Q8TBX8).
T1 construct: gene PIP4K2C

In another experiment the target is T2, JNK3 (Homo sapiens, UniProt P53779).
T2 construct: gene MAPK10

Another experiment deals with T3, ERK3 (Homo sapiens, UniProt Q16659).
T3 construct: gene MAPK6

The target in experiment [1] is T4, ABL1(M351T)-phosphorylated (Homo sapiens, UniProt P00519, M351T).
T4 construct: phosphorylated

A further experiment concerns the target T5, YES (Homo sapiens, UniProt P07947).
T5 construct: gene YES1

A further experiment addresses T6, FAK (Homo sapiens, UniProt Q05397).
T6 construct: gene PTK2

The target in a further experiment is T7, LZK (Homo sapiens, UniProt O43283).
T7 construct: gene MAP3K13

For experiment [2], the target named is T8, JAK1(JH2domain-pseudokinase) (Homo sapiens, UniProt P23458).
T8 construct: JH2domain-pseudokinase

Sequence of MKNK1 (Q9BUB5 whole entry): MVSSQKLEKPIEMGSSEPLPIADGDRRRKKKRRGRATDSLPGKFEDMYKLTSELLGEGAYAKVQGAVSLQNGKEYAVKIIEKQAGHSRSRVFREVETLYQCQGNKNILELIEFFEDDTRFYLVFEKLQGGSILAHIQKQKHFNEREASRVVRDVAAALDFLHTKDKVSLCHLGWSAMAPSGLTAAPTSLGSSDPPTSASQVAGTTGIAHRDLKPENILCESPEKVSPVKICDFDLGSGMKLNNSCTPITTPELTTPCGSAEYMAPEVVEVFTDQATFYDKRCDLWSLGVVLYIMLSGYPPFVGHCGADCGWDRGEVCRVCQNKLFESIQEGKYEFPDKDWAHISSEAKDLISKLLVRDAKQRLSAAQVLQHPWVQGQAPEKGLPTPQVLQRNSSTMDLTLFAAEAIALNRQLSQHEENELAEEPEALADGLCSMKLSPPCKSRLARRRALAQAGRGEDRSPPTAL
T3 sequence (Q16659 whole entry): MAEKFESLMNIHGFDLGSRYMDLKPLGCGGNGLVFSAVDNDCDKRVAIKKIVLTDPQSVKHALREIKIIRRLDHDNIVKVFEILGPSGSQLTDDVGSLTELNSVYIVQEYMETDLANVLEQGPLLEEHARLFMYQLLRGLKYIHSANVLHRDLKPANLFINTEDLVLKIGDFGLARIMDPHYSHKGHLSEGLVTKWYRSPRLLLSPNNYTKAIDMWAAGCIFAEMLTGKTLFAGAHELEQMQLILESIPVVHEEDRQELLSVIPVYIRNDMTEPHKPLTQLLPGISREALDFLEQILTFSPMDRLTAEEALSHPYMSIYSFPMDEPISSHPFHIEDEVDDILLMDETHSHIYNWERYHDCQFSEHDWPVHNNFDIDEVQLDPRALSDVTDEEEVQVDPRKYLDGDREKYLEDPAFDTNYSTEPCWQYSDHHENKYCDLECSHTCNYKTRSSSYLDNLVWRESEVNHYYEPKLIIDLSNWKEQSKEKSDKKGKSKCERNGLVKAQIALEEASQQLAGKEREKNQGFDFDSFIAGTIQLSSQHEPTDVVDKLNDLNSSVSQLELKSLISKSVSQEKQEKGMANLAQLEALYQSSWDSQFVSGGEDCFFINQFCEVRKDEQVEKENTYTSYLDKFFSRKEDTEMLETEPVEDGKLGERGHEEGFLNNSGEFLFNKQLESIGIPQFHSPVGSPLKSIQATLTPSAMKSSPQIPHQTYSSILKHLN
T1 sequence (Q8TBX8 whole entry): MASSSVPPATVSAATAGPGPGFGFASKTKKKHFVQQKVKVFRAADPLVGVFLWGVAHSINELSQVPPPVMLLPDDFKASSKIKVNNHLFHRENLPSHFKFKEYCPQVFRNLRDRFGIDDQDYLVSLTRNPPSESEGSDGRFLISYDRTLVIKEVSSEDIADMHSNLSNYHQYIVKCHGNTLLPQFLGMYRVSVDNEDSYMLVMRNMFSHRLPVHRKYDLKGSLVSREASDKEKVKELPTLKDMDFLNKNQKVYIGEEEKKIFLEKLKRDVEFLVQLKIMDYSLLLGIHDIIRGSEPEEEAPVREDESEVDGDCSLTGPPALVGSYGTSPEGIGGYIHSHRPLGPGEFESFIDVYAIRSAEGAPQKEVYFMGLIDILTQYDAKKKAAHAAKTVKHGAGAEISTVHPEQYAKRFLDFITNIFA
Sequence of ZAP70 (P43403 whole entry): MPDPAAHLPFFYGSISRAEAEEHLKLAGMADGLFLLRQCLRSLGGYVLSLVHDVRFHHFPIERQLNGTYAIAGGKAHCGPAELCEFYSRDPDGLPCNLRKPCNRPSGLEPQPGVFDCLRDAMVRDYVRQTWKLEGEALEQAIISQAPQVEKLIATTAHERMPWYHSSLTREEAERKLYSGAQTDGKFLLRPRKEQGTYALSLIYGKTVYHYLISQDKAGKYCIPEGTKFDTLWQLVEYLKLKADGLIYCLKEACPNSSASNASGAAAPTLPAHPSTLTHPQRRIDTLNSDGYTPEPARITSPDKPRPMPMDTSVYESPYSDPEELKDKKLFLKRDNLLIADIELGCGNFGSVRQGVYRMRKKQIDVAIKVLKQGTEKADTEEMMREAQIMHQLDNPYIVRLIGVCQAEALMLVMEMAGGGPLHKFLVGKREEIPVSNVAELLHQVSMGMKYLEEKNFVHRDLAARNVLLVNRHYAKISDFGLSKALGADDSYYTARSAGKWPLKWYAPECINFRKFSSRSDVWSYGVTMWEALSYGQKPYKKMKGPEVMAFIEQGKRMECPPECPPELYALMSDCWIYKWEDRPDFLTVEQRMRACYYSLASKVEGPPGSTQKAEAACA
Sequence of CHEK1 (O14757 whole entry): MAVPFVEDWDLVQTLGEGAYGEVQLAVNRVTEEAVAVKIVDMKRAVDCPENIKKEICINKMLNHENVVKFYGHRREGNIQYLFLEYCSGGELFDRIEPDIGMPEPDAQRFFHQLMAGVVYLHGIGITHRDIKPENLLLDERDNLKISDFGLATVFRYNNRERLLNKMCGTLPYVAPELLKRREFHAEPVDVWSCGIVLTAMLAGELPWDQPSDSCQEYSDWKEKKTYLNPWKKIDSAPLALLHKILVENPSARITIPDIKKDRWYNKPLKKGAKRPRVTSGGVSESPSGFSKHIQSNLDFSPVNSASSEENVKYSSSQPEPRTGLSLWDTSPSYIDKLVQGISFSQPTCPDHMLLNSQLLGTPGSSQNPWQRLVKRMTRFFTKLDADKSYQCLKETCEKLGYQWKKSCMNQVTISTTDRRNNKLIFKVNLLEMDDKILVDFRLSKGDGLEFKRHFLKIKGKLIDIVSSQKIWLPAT
Sequence of STK16 (O75716 whole entry): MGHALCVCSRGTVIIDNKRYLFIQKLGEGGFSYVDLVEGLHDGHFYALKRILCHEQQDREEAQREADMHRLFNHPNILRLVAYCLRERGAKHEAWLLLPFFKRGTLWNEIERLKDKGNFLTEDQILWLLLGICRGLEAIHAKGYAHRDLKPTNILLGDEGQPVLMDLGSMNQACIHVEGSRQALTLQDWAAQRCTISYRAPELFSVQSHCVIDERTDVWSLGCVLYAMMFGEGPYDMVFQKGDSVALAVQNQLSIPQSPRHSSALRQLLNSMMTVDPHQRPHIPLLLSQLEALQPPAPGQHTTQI
T2 sequence (P53779 whole entry): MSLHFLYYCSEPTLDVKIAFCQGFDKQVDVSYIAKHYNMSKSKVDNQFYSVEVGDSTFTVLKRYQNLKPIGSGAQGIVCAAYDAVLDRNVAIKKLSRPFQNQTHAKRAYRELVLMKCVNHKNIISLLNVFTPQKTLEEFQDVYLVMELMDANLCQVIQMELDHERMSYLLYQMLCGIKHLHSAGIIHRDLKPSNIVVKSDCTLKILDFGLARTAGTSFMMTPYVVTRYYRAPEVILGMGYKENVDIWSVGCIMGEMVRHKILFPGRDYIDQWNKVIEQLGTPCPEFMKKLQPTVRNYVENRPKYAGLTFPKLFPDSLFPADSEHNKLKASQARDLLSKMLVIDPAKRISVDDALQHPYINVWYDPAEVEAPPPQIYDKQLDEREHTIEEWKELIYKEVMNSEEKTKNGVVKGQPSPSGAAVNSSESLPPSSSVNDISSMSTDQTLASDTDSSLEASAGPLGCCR
Sequence of KIT(A829P) (P10721 whole entry A829P): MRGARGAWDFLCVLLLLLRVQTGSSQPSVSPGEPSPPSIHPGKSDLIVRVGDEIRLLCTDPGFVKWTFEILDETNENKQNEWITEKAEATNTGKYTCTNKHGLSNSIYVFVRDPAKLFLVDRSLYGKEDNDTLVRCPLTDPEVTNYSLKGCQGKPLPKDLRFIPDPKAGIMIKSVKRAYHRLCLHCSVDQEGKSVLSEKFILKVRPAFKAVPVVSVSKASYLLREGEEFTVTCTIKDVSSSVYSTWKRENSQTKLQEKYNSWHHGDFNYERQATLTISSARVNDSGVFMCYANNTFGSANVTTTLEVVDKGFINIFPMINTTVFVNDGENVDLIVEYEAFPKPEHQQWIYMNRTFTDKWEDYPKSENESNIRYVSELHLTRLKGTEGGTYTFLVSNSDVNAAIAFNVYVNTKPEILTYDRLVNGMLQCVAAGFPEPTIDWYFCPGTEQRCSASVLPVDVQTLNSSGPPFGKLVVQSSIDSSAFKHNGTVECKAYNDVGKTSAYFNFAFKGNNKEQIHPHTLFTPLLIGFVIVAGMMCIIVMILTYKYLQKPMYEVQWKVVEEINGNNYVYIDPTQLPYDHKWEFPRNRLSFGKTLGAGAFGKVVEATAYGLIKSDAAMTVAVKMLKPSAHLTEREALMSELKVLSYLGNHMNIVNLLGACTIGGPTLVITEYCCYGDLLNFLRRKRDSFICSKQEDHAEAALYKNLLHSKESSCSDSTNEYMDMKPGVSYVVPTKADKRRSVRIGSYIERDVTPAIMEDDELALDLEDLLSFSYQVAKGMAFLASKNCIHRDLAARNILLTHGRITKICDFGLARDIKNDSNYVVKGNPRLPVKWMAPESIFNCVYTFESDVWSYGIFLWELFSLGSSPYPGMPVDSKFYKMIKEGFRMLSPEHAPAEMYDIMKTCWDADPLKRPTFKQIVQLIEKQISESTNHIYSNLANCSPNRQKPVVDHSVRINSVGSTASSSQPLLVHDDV
Sequence of GSK3A (P49840 whole entry): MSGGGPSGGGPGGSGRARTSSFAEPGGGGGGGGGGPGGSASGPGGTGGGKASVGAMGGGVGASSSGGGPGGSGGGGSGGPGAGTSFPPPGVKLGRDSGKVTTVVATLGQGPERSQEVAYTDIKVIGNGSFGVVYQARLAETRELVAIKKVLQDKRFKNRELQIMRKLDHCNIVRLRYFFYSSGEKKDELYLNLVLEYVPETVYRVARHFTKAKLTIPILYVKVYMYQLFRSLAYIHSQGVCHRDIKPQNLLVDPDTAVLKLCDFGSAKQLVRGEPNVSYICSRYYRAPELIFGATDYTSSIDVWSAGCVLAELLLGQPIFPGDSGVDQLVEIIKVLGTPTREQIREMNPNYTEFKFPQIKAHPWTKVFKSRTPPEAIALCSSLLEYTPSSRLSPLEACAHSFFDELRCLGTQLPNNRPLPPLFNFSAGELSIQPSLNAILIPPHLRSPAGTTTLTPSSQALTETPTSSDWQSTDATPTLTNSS

As to `Cc1ccc(NC(=O)c2cccc(C(F)(F)F)c2)cc1Nc1cc(-c2cccnc2)nc2[nH]ccc12` [HZX-02-059], the remaining binding at 1 µM at PIP5K2C is 43%; at RIPK1, 100%; on JNK3 it was 96%; on ERK3, 100%; at SRC, 78%; at PAK2 it was 88%. In addition, the remaining binding at 1 µM at NEK4 turned out to be 86%; at FLT3(K663Q), 98%; in [1], 48%; at NEK10, 100%; at GSK3A, 98%; on MKNK1, 100%. The remaining binding at 1 µM at ZAP70 was 76%; on CHEK1, 88%; on KIT(A829P), 84%; on TGFBR1 it was 76%; on STK16, 96%; on EPHB2, 4.7%. Moreover, the remaining binding at 1 µM on YES was 86%; on FAK it was 98%; on IGF1R it was 92%; at LZK, 100%; on STK36 it was 89%; in [2], 64%.
